Data on 31 molecules can be found in publication PMC7697893, “Novel 1-Amidino-4-Phenylpiperazines as Potent Agonists at Human TAAR1 Receptor: Rational Design, Synthesis, Biological Evaluation and Molecular Docking Studies” (Pharmaceuticals, 2020).

Structures can show the parent of a compound that is named as a salt. Where two headings read alike, the source gives them in different places.

Data set [1] has as its target T1, hTAAR1 (Homo sapiens, UniProt Q96RJ0).
T1 construct: expressed in transfected cells; host or cells: HEK-293T (ATCC)
T1 sequence (Q96RJ0 1-339): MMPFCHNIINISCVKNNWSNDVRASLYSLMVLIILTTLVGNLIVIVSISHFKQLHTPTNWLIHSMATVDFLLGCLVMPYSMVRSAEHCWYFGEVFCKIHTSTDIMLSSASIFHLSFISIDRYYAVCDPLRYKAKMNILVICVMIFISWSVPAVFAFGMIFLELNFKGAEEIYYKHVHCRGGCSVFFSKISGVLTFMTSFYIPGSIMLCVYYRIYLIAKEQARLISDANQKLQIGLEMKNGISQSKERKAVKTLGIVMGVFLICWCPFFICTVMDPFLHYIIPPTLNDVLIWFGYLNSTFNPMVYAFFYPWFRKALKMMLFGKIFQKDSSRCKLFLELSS
In words: Functional activity at hTAAR1, cAMP BRET biosensor in HEK-293T cells. To be noted: for Emax at 10 µM: HEK-293T, read-out: hTAAR1 Activity. The data set is classed as cell-based. As to the method: The activity of the compounds was measured using human embryonic kidney 293 (HEK-293T) cells co-transfected with plasmids encoding hTAAR1 and a cAMP Bioluminescence Resonance Energy Transfer (BRET) biosensor, or empty vector as a control. TYR was used as a positive control for agonism. Firstly, all the compounds were tested at 10 μM either for agonistic or antagonistic activity.
BRET screening was described in detail elsewhere. HEK-293T (ATCC) cells were transiently сo-transfected with plasmids encoding hTAAR1 and a cAMP BRET biosensor using Lipofectamine® (ThermoFisher) reagent, and then plated in 96-well plates (Corning) at […] per well. On the following day, culture medium was removed and 70 μL of phosphate-buffered saline containing calcium and magnesium was added to each well, followed by the addition of 10 μL […] 3-isobutyl-1-methylxanthine solution (Sigma), and 10 μL 50 μM coelenterazine-h solution (Promega). All tested compounds were dissolved in DMSO to yield 10 mM stock solutions. After 10 min incubation, either 10 μL of vehicle or 10× of the concentrated solution of compound to be tested (10 μM final concentration) was added. Readings were collected using a Mithras LB943 multimodal plate reader (Berthold Technologies). The BRET signal is determined by calculating the ratio of the light emitted at 505 to 555 nm to the light emitted at 465 to 505 nm.
Curves were fitted by applying non-linear regression models on GraphPad Prism 6 (GraphPad Software).
(In general: In BRET a luciferase serves as donor, and the signal depends on an acceptor being close.)

Data set [2] is described as follows: Cell cytotoxicity assay (MTT) on Vero-76 cells. To be noted: Cercopithecus aethiops (African green monkey), Vero-76 cells; MTT method, 48–96 h; CC50±SEM. The data set is classed as cell-based, Cercopithecus Aethiops. As to the method: (§1) Vero-76 cells (ATCC CRL 1587 Cercopithecus Aethiops) were seeded at an initial density of 4 × 10^5 cells/mL in 24-well plates, in culture medium (Dulbecco’s Modified Eagle Medium (D-MEM) with L-glutamine, supplemented with fetal bovine serum (FBS), 0.025 g/L kanamycin). Cell cultures were then incubated at 37 °C in a humidified, 5% CO2 atmosphere in the absence or presence of serial dilutions of test compounds. Cell viability was determined after 48–96 h at 37 °C by the MTT staining method. The results are expressed as CC50, which is the concentration of compound necessary to inhibit cell growth by 50%. Each CC50 value is the mean and standard deviation of at least three separate experiments performed in duplicate.
A general note: Tetrazolium assays rely on reduction of a dye to a coloured formazan, in cell work by metabolically active cells.

The test system of data set [3] is Vero-76 cells. Description: Cell cytotoxicity assay (MTT) on Vero-76 cells. The data set is classed as cell-based, Cercopithecus Aethiops. The settings on record: ratio of Vero-76 CC50 to hTAAR1 EC50. As for the experimental part: as §1
Data set [4] deals with T1, hTAAR1.
Data set [5] relates to mTAAR1. Also on record: method as in PMID 27823885, PMID 29407948. The settings on record: Figure 2, biguanides SET1 and SET2; cited from earlier work.
Details of data set [6]: method as in PMID 5719030. To be noted: potentiating pressor effect of tyramine and NE; cited from earlier work.
The mark [7] stands for this setting: dose–response 10 nM to 10 μM, means of 4 experiments, errors within 10%, read-out: hTAAR1 EC50.
Where [8] appears, read: Figure 2, biguanides SET1 and SET2; cited from earlier work.
Setting [9] is: Figure 2, biguanides SET1 and SET2; read-out: hTAAR1 EC50; cited from earlier work.
Setting [10] is: hTAAR1, amidines of this paper, from EC50, read-out: pEC50 (converted).
Setting [11] is: as compared with 1 µM TYR (full agonism), compounds tested at 10 μM.

A word on the CC50: it is the concentration giving 50% cytotoxicity. Read a low CC50 as greater toxicity to the cells. The melting point is the temperature of the solid-liquid transition. As for `Cl.N=C(N)N1CCN(c2ccccn2)CC1` [Compound 10, 4-(Pyridin-2-yl)Piperazine-1-Carboximidamide Hydrochloride], the melting point is 205 to 208 °C. Further, the Emax at 10 µM in data set [1] stood at 30%. Moreover, in data set [1] (setting [7]), the EC50 is over 2000 nM. The molecule also gave a 50% cytotoxic concentration (CC50) in data set [2] of 74000 ± 5000 nM. The “Therapeutic index (CC50/EC50)” value in data set [3] turned out to be 37.
With `Cc1ccc(NC(=N)N=C(N)N)cc1` [BIG8], the “hTAAR1 EC50” value in data set [4] (setting [8]) was “inactive”. The EC50 in data set [4] (setting [9]) is over 10000 nM; in data set [5], 1700 nM.
Turning to `N=C(N)N=C(N)N1CCN(c2ccccc2Cl)CC1` [Compound 3a], in data set [5], the EC50 is 2660 nM.
For the molecule `Cc1ccccc1N1CCN(C(=N)N)CC1.Cl` [Compound 2, 4-(o-Tolyl)piperazine-1-carboximidamide hydrochloride], the melting point fell in the range of 159 to 162 °C. The Emax at 10 µM in data set [1] was determined as 100%. Further, the EC50 in data set [1] (setting [10]) is 30.2 nM. In data set [2], this molecule showed a CC50 of 80000 ± 5000 nM. The “Therapeutic index (CC50/EC50)” value in data set [3] stood at 2667.
Turning to `COc1cccc(N2CCN(C(=N)N)CC2)c1.Cl` [Compound 7, 4-(3-Methoxyphenyl)piperazine-1-carboximidamide hydrochloride], the Emax at 10 µM in data set [1] turned out to be 32%. In addition, the EC50 in data set [1] (setting [7]) is 244 nM. Further, the CC50 in data set [2] worked out at 87000 ± 4000 nM. Besides, the “Therapeutic index (CC50/EC50)” value in data set [3] is listed as 357.
For `NCCc1ccc(O)cc1` [TYR, tyramine, reference compound], the “hTAAR1 Activity” value in data set [1] (setting [11]) is listed as 100%. For the same molecule, the EC50 in data set [1] (setting [7]) stood at 66 nM.
On to `COc1ccc(N=C(N)N=C(N)N)cc1` [BIG9], for which, in data set [4] (setting [8]), the “hTAAR1 EC50” value was “inactive”. Besides, the “mTAAR1 EC50” value in data set [5] is “inactive”.
In the case of `NC(N)=NC(N)=NCc1cccc(Cl)c1` [BIG12], the EC50 in data set [5] was 97 nM.
Turning to `NC(N)=NC(N)=Nc1ccccc1Cl` [BIG2], the EC50 in data set [5] is 410 nM.
As for `Cl.N=C(N)N1CCN(c2ncccn2)CC1` [Compound 11, 4-(Pyrimidin-2-yl)piperazine-1-carboximidamide hydrochloride], in data set [1] (setting [11]), the “hTAAR1 Activity” value is “inactive”. This molecule also showed a 50% cytotoxic concentration (CC50) in data set [2] of 64000 ± 2000 nM.
Turning to `NCCc1ccccc1` [β-PEA, β-phenylethylamine], the pEC50 in data set [4] (hTAAR1; endogenous agonist, no reference given; cited from earlier work) was 6.70 M.
Regarding `NC(N)=NC(N)=NCc1ccc(Cl)c(Cl)c1` [BIG14], in data set [5], the EC50 is 36 nM.
For `Cl.N=C(N)N1CCN(c2ccccc2F)CC1` [Compound 13, 4-(2-Fluorophenyl)piperazine-1-carboximidamide hydrochloride], the melting point was 145 to 148 °C. The “hTAAR1 Activity” value in data set [1] (setting [11]) is “inactive”. In data set [2], this molecule showed a 50% cytotoxic concentration (CC50) of 87000 ± 5000 nM.
Take `N=C(N)NC(=N)NCc1ccccc1` [BIG10, 1-benzylbiguanide]: the EC50 in data set [4] (setting [9]) was over 10000 nM; in data set [5], 780 nM.
Take `Cl.N=C(N)N1CCN(c2ccccc2Cl)CC1` [Compound 3, 4-(2-Chlorophenyl)piperazine-1-carboximidamide hydrochloride]: in data set [1], the Emax at 10 µM stood at 90%. Also, the EC50 in data set [1] (setting [7]) stood at 160 nM. For the same molecule, in data set [2], the 50% cytotoxic concentration (CC50) was over 100000 nM. Further, the “Therapeutic index (CC50/EC50)” value in data set [3] stood at 625.
Take `Cl.N=C(N)N1CCN(c2ccc(F)cc2)CC1` [Compound 14, 4-(4-Fluorophenyl)piperazine-1-carboximidamide hydrochloride]: the “hTAAR1 Activity” value in data set [1] (setting [11]) is “inactive”. In data set [2], this molecule gave a 50% cytotoxic concentration (CC50) of 94000 ± 6000 nM.
As for `N=C(N)N=C(N)N1CCN(c2ncccn2)CC1` [Compound 10a], in data set [4] (setting [8]), the “hTAAR1 EC50” value was “inactive”. Besides, the EC50 in data set [5] was 9000 nM.
As to `NC(N)=NC(N)=Nc1ccc(Cl)cc1` [BIG4], the “hTAAR1 EC50” value in data set [4] (setting [8]) was “inactive”. In addition, the EC50 was over 10000 nM in data set [4] (read-out: hTAAR1 EC50; Figure 2, biguanides SET1 and SET2; cited from earlier work); 2100 nM in data set [5].
Turning to `N=C(N)N1CCN(c2cccc(C(F)(F)F)c2)CC1` [Compound 9, 4-[(3-Trifluoromethyl)phenyl]piperazine-1-carboximidamide hydrochloride], the Emax at 10 µM in data set [1] (setting [11]) stood at 80%. Further, the EC50 in data set [1] (setting [7]) is 64 nM. The same molecule came in with a CC50 in data set [2] of over 100000 nM. Also, the “Therapeutic index (CC50/EC50)” value in data set [3] was determined as 1562.
Take `N=C(N)N1CCN(c2cccc(C(F)(F)F)c2)CC1` (as salt: hydrochloride) [Compound 9, 4-[(3-Trifluoromethyl)phenyl]piperazine-1-carboximidamide hydrochloride]: the melting point was 170 to 173 °C.
Consider `COc1ccc(N2CCN(C(N)=NC(=N)N)CC2)cc1` [Compound 8a], for which the “mTAAR1 EC50” value in data set [5] is “inactive”.
For `COc1ccc(N2CCN(C(=N)N)CC2)cc1.Cl` [Compound 8, 4-(4-Methoxyphenyl)piperazine-1-carboximidamide hydrochloride], the “hTAAR1 Activity” value in data set [1] (setting [11]) is “inactive”. Moreover, in data set [2], the 50% cytotoxic concentration (CC50) worked out at 88000 ± 2000 nM.
Take `N=C(N)N=C(N)N1CCN(c2ccccc2)CC1` [Compound 1a, 1-phenyl-4-biguanylpiperazine]: the EC50 in data set [5] was 2380 nM.
`COc1ccc(CN=C(N)N=C(N)N)cc1` [BIG17]: the “hTAAR1 EC50” value in data set [4] (setting [8]) is “inactive”. Also, in data set [5], the “mTAAR1 EC50” value is “inactive”.
`Cl.N=C(N)N1CCN(c2cccc(Cl)c2Cl)CC1` [Compound 15, 4-(2,3-Dichlorophenyl)piperazine-1-carboximidamide hydrochloride]: the Emax at 10 µM in data set [1] is 81%. In data set [1] (setting [10]), the EC50 was 20 nM. In data set [2], this molecule yielded a 50% cytotoxic concentration (CC50) of 82000 ± 5000 nM. Also, in data set [3], the “Therapeutic index (CC50/EC50)” value is recorded as 4100.
As to `Cl.N#Cc1ccccc1N1CCN(C(=N)N)CC1` [Compound 12, 4-(2-Cyanophenyl)piperazine-1-carboximidamide hydrochloride], the melting point lay within 236 to 238 °C. The “hTAAR1 Activity” value in data set [1] (setting [11]) was “inactive”. In data set [2], this molecule displayed a CC50 of 78000 ± 2000 nM.
In turn, `Cl.N=C(N)N1CCN(c2ccc(Cl)c(Cl)c2)CC1` [Compound 16, 4-(3,4-Dichlorophenyl)piperazine-1-carboximidamide hydrochloride] displayed a melting point of 235 to 237 °C. In addition, in data set [1], the Emax at 10 µM is 49%. In data set [1] (setting [7]), the EC50 is 71 nM. This molecule also registered a CC50 in data set [2] of 89000 ± 4000 nM. The “Therapeutic index (CC50/EC50)” value in data set [3] stood at 1254.
Consider `CCc1[nH]nc(C(=O)Nc2ccc([C@H]3CNCCO3)cc2)c1C` [(4-Aminophenyl)morpholino derivative], for which, in data set [4] (partial agonist; cited from earlier work), the hTAAR1 efficacy was 42%.
`NC1=N[C@H](c2ccc(Br)cc2)CO1` [Compound 27b]: the pEC50 in data set [4] (2-aminooxazolines reported by Roche, Table S1; cited from earlier work) was 5.00 M.
On to `Cl.N=C(N)N1CCN(c2ccc(Cl)cc2)CC1` [Compound 5, 4-(4-Chlorophenyl)piperazine-1-carboximidamide hydrochloride], for which, in data set [1] (setting [11]), the “hTAAR1 Activity” value is “inactive”. Further, in data set [2], the midpoint of cytotoxicity, the CC50, lay at 95000 ± 3000 nM. In addition, the sympathomimetic effect entry in data set [6] is listed as “a rise in the blood pressure”.
As to `COc1ccccc1N1CCN(C(=N)N)CC1.Cl` [Compound 6, 4-(2-Methoxyphenyl)piperazine-1-carboximidamide hydrochloride], in data set [1], the Emax at 10 µM came to 64%. The EC50 in data set [1] (setting [7]) worked out at 93 nM. Moreover, in data set [2], the cytotoxic concentration (CC50) stood at 83000 ± 5000 nM. Besides, in data set [3], the “Therapeutic index (CC50/EC50)” value was determined as 892.
